Measurements taken from patent US10081615B2, “Sulfamate derivative compounds for use in treating or alleviating pain” (Bio-Pharm Solutions Co., Ltd., priority 2013, dated 2018).
Where two headings read alike, the source gives them in different places.

How the values were obtained:
SNL model = assay: Antiallodynic activity in the Chung model (SNL, Spinal Nerve Ligation; von Frey); format: in vivo, Sprague-Dawley rats
Protocol: Male Sprague-Dawley rats (200-220 g, Orient Bio, Korea) were habituated for 1 week before the experiment and allowed free access to food and water throughout the experimentation. Room temperature and humidity were maintained at 24±2° C. and 50±10%, respectively. The neuropathic surgery (SNL, Spinal Nerve Ligation) model was done as described in Kim and Chung (1992). Briefly, an animal was put under gaseous anesthesia with isoflurane and NO2 with a 4:4 flow ratio. The left lumbar spinal nerves L5 and L6 were isolated and tightly ligated with 4-0 silk thread. The wound was treated with a gentamicin antibiotic solution (4 mg/kg, 4 ul/g by bodyweight), and the wound muscle was closed with Catgut® chrome 4/0 thread and the skin was closed with Dafilon 4/0 thread. Sham controls were prepared in the same manner with the spinal nerves were exposed, but no ligated L5 and L6 nerves. Preparation of the vehicle controls were identical to the group treated with compound, except for administration of vehicles without compound in the vehicle control group.
Tactile sensitivity (mechanical allodynia) was evaluated using von Frey monofilaments before and after treatment and animals the animals were included in the study only if the withdrawal threshold value was less than 4 g. One week after surgery, SNL-operated animals (n=4˜6), sham-operated animals (n=4˜10) and vehicle-operated animals (n=4˜13) were tested for tactile sensitivity with von Frey monofilaments with 3 trials in each animal. All animals were placed in a stainless steel mesh chamber and habituated for 30 min in the test cage. The tactile sensitivity for ipsilateral hind paw was measured using the up-and-down method (Dixon, 1980) with seven von Frey monofilaments (0.4, 1, 2, 4, 6, 8, and 15 g) in 3 trials. The tactile sensitivity test was followed by Dixon's method (Dixon, 1980). The 50% paw withdrawal threshold for each paw was calculated using the following formula: [Xth] log=[vFr] log+ky where [vFr] is the force of the last von Frey used, k=0.2249 which is the average interval (in log units) between the von Frey monofilaments, and y is a value that depends upon the pattern of withdrawal responses (Dixon, 1980).
All animals were fasted for 18 h before the administration of the compounds. The antiallodynic effect of the compounds were evaluated at the various doses (n=5˜6), orally administered in a volume of 5 ul/g by bodyweight in a vehicle of 30% (v/v) PEG 400 (Example 7) or 20% (v/v) Tween 80 (Examples 5 and 6) or saline. […]
The relative values compared to the sham group (% control) were calculated and are shown in Table 5, which show an antiallodynic effect of the test compounds in the SNL model in rats.

[1] = system: acetic acid-induced writhes; assay: Writhing test (acetic acid); format: in vivo, ICR mice; conditions: mouse, oral
Protocol: To examine the pain relief effect of the sulfamate derivative compounds, a writhing test was referring to Fischer, L. G. et al. (2008).
ICR mice (male, 24-28 g; Orient Bio, Korea) were habituated before test in test room for 1 hour. Animals were fasted for 2 hr before administration of compounds. […] All compounds were dissolved in a vehicle of 30% (v/v) PEG 400 or 20% (v/v) Tween 80. The control group was treated with the vehicle without compounds.
[…] Animals were habituated in the cage for 5 min. 5 min after habituation, the number of writhes (abdominal constriction) was counted for 15 minutes referring to Korzeniewska-Rybicka, I. et al. (1998) and compared with that of the control.

CFA-induced pain model = assay: Antiallodynic activity on Complete Freund's Adjuvant (CFA)-induced inflammatory pain model (von Frey); format: in vivo, Sprague-Dawley rats; conditions: Rattus norvegicus, ip, read-out: CFA model: effect (%) compared to control
Protocol: Male, Sprague-Dawley rats (200-220 g, Nara Bio, Korea) were habituated for 1 week before surgery and allowed free access to food and water throughout the experimentation. Room temperature and humidity were maintained at 24±2° C. and 50±10%, respectively.
CFA-induced inflammatory pain was induced by the procedure of Nagakura et al. (2003) and Gregory P. et al. (2010) with minor modifications. CFA (sigma, USA) was injected into the left plantar with a 100 ul volume under gaseous anesthesia with isoflurane and NO2 with a 4:4 flow ratio. Sham controls were injected with 100 ul of saline and preparation of the vehicle controls were identical to the group treated with compound, except for administration of vehicles without compound in the vehicle control group.
Tactile sensitivity (mechanical allodynia) was evaluated using von Frey monofilaments before and after treatment, and the animals were included in the study only if the withdrawal threshold value was less than 4 g. One week after surgery, CFA-infused animals (n=4˜6), sham-operated animals (n=12), and vehicle-operated animals (n=17) were tested for tactile sensitivity with von Frey monofilaments, with 3 trials for each animal. All animals were placed in a stainless steel mesh chamber and habituated for 30 min in the test cage. The tactile sensitivity for the ipsilateral hind paw was measured using the up-and-down method (Dixon, 1980) with seven von Frey monofilaments (0.4, 1, 2, 4, 6, 8, and 15 g) in 3 trials. The tactile sensitivity test was followed by Dixon's method (Dixon, 1980). The 50% paw withdrawal threshold for each paw was calculated using the following formula: [Xth] log=[vFr] log+ky where [vFr] is the force of the last von Frey used, k=0.2249 which is the average interval (in log units) between the von Frey monofilaments, and y is a value that depends upon the pattern of the withdrawal responses (Dixon, 1980).
The antiallodynic effect of the compound of Example was evaluated at the doses of 10, 30 and 60 mg/kg (n=4˜6), and were intraperitoneally administered in a volume of 5 ul/g by bodyweight in a vehicle of 30% (v/v) PEG. […]
The relative values compared to the sham (% control) were calculated and are shown in Table 4, which show an antiallodynic effect of the compound of examples in the CFA-induced pain model in rats.

[2] = system: Post operation-induced pain model; assay: Antiallodynic activity on post operative pain-induced pain model (von Frey); format: in vivo, Sprague-Dawley rats; conditions: rat, intraperitoneal, 18.9 mg/kg administered, time not given
Protocol: Male Sprague-Dawley rats (Orient Bio, Korea), 300-320 g, total of 201 rats were used (details in Table 7). Rats were habituated at least 3 days before surgery and free access to food and water (room temperature and humidity were maintained at […] and 50±10%, respectively). The process of performing the post-operation model's surgery was adapted from Brennan et al (1996). At first, rats with allodynia (threshold valueless than 8 g) were excluded in Pre-von Frey Test. During the post-operation surgery, rats were anesthetized under gaseous anesthesia with 2% isoflurane. Rats were laid face down on a plate fixed at 37° C. to prevent against hypothermia. The ipsilateral plantar aspect (left side) of the hind paw was prepared in a sterile manner with a 10% povidone-iodine solution. A longitudinal incision (1 cm) (FIG. 2-A) was made with a blade (number 11) through the skin and fascia of the ipsilateral plantar aspect of the foot, starting from 0.5 cm below the proximal edge of the heel and extending toward the toes. Rats' plantar muscles were elevated and incised longitudinally (FIG. 2-B). After hemostasis with gentle pressure, the skin was opposed with 2 mattress sutures (4-0 Dafilon) (FIG. 2-C). The wound site was covered with a 10% povidone-iodine solution gauze and injected with antibiotics (gentamicin, 8 mg/kg, ip). The sutures were removed under halothane anesthesia approximately 30 hours later, at the end of post-operative day 1.
After 2-3 days of recovery, rats with a good response (threshold less than 4 g) in Pre-von Frey Test were selected. According to this response, we made three groups with each group having equal average responses: Group 1, post-operation and drug treated; Group 2, post-operation and vehicle treated; Group 3, no post-operation and vehicle treated. In this study, Group 3 was the sham control (positive) group. The group 2 was used to check for possible failures to generate post-operative pain.
For efficacy measure, the threshold value of group C was assigned 100% efficacy, and the percentage of the threshold values of group A compared to group C (for each different dose level) were calculated as the efficacies. Base on these efficacy values, ED50 was calculated using log fitting. If there was no clear ED50, then we marked the percent efficacy at the highest tested dose or larger than highest tested dose.
For pain threshold test, all animals were placed in a stainless steel meshed chamber and habituated for 30 min in the test box. The tactile sensitivity of the ipsilateral hind paw was measured using the up-and-down method (Dixon, 1980) with seven von Frey monofilaments (0.4, 1, 2, 4, 6, 8, and 15 g) using 3 trials. The 50% paw withdrawal threshold for each paw was calculated using the following formula: [Xth] log=[vFr] log+ky, where [vFr] is the force of the last von Frey filament used, k=0.2249 which is the average interval (in log units) between the von Frey monofilaments, y which is a value that depends upon the pattern of withdrawal responses, and Xth which is the threshold value (Dixon, 1980).
Drugs were dissolved 30% PEG400 for example 60, 0.9% saline for Pregabalin, 20% Tween80 for Tylenol, 0.9% saline for Topiramate. These vehicles were selected depending on the compound's solubility. Intraperitoneal injection (5 μl/g) was done for all drugs.
The relative values compared to the sham (% control) were calculated and shown in Table 8, which show an antiallodynic effect of the compound of examples on Post operation-induced pain model in rats.

[3] = Rattus norvegicus, po, read-out: SNL model: effect (%) compared to control, rat, oral, 3.5 mg/kg administered, time not given

CC1(C)Oc2ccccc2[C@H](COS(N)(=O)=O)O1 [Example 1, ((R)-2,2-dimethyl-4H-benzo[d][1,3]dioxin-4-yl)methyl sulfamate]
ED50 (SNL model; rat, oral, 1 h, read-out: SNL model: ED50): 9.9 mg/kg
ED50 ([1]; 0.25 h, read-out: Writh test: ED50): 56.8 mg/kg

CC1(C)Oc2ccc(Cl)cc2C(COS([NH-])(=O)=O)O1.[Na+] (stereo not shown) [Example 63, Sodium (((6-chloro-2,2-dimethyl-4H-benzo[d][1,3]dioxin-4-yl)methoxy)sulfonyl)amide]
melting point: 129.3 to 132.3 °C
response vs control in vivo at 25 mg/kg (CFA-induced pain model): 16.9%
response vs control in vivo at 3.5 mg/kg (SNL model; [3]): 32.9%
Post Operation: effect (%) compared to control [2]: (26.6%)

[NH-]S(=O)(=O)OCC1OC2(CCCC2)Oc2ccc(Cl)cc21.[Na+] (stereo not shown) [Example 67, Sodium ((6-chloro-(4H-spiro[benzo[d][1,3]dioxine-2,1′-cyclopentan]-4-yl)methoxy)sulfonyl)amide]
melting point: 68.6 to 72.3 °C
response vs control in vivo at 3.5 mg/kg (SNL model; [3]): 49.1%

[NH-]S(=O)(=O)OC[C@@H]1OC2(CCCC2)Oc2ccccc21.[Na+] [Example 64, Sodium (R)-(((4H-spiro[benzo[d][1,3]dioxine-2,1′-cyclopentan]-4-yl)methoxy)sulfonyl)amide]
melting point: 132.9 to 134.9 °C
response vs control in vivo at 3.5 mg/kg (SNL model; [3]): 22.5%

CC1(C)Oc2ccc(Cl)cc2[C@@H](COS([NH-])(=O)=O)O1.[Na+] [Example 62, Sodium (S)-(((6-chloro-2,2-dimethyl-4H-benzo[d][1,3]dioxin-4-yl)methoxy)sulfonyl)amide]
melting point: 133.8 to 135.3 °C
response vs control in vivo at 3.5 mg/kg (SNL model; [3]): 32.6%

CC1(C)Oc2ccccc2C(COS(N)(=O)=O)O1 (racemic) [Example 3, (2,2-dimethyl-4H-benzo[d][1,3]dioxin-4-yl))methyl sulfamate]
response vs control in vivo at 3.5 mg/kg (SNL model; rat, oral, 3.5 mg/kg administered, 0.5 h, read-out: SNL model: effect (%) compared to control): 35%
Writh test: effect (%) compared to control ([1]; 80 mg/kg administered, 0.5 h): (63.9%, 0.5 h)

[NH-]S(=O)(=O)OCC1OC2(CCCC2)Oc2ccccc21.[Na+] (stereo not shown) [Example 66, Sodium (((4H-spiro[benzo[d][1,3]dioxine-2,1′-cylcopentan]-4-yl)methoxy)sulfonyl)amide]
melting point: 145.5 to 148.9 °C
response vs control in vivo at 3.5 mg/kg (SNL model; Rattus norvegicus, po, 0.5 h, read-out: SNL model: effect (%) compared to control, rat, oral, 3.5 mg/kg administered, 0.5 h): 59.5%
